From US20130252814A1, “SYNERGISTIC HERBICIDAL COMPOSITION CONTAINING PENOXSULAM AND PRETILACHLOR” (DOW AGROSCIENCES LLC, priority 2011, published 2013)

Tested on: ECHCG - Echinochloa crus-galli (barnyardgrass)
Assay: Preemergence herbicidal activity of mixtures under field conditions, seeded rice, field trial Taiwan
Format: in vivo
Protocol: A field trial was conducted in rice in Taiwan using standard herbicide small plot research methodology. Plot size was 1 meter (m) wide by 1 m long. There were 3 replicates per treatment. Soil type was medium texture. Rice was sown by hand direct dry seeding as per normal local cultural practices. The rice crop was grown using normal cultural practices for fertilization, watering, flooding and maintenance to ensure good growth of the crop and the weeds. Treatments were applied by backpack sprayer using compressed air at 30 pounds per square inch (psi) spray pressure. Spray tips were Flat Fan Teejet nozzles, delivering a spray volume of 300 liters per hectare (L/ha). For each treatment, the appropriate formulated product amount to treat the plot area, to achieve the desired application rate, based on unit area of application (hectare), was calculated, measured, and mixed in water prior to applying with the backpack sprayer. Treatments were rated as compared to the untreated control plots. The treated plots and control plots were rated blind at various intervals after application. Ratings were based of Percent (%) Visual weed control, where 0 corresponds to no injury and 100 corresponds to complete kill. Colby's equation was used to determine the herbicidal effects expected from the mixtures (Colby, S. R. Calculation of the synergistic and antagonistic response of herbicide combinations. Weeds 1967, 15, 20-22). The following equation was used to calculate the expected activity of mixtures containing two active ingredients, A and B: Expected=A+B−(A×B/100) A=observed efficacy of active ingredient A at the same concentration as used in the mixture and B=observed efficacy of active ingredient B at the same concentration as used in the mixture.

Which results are given for `COc1cnc(OC)n2nc(NS(=O)(=O)c3c(OCC(F)F)cccc3C(F)(F)F)nc12` [Penoxsulam, 2-(2,2-difluoroethoxy)-N-(5,8-dimethoxy-[1,2,4]triazolo[1,5-c]pyrimidin-2-yl)-6-(trifluoromethyl)benzenesulfonamide]?
% Control ECHCG Obs (7 days after preemergence application, penoxsulam 7.5 gr ai/ha): 47%; % Control ECHCG Obs (7 days after preemergence application, penoxsulam 23 gr ai/ha): 95%; % Control ECHCG Obs (28 days after preemergence application, penoxsulam 7.5 gr ai/ha): 7%; % Control ECHCG Obs (28 days after preemergence application, penoxsulam 15 gr ai/ha): 80%

`CCCOCCN(C(=O)CCl)c1c(CC)cccc1CC` [Pretilachlor, 2-chloro-N-(2,6-diethylphenyl)-N-(2-propoxyethyl)acetamide] was tested. Which “% Control ECHCG Obs” value (7 days after preemergence application, pretilachlor 270 gr ai/ha) did it give?
Its value is 3%.

And the “% Control ECHCG Obs” value (7 days after preemergence application, pretilachlor 540 gr ai/ha)?
The value was 3%.

What about the “% Control ECHCG Obs” value (28 days after preemergence application, pretilachlor 270 gr ai/ha) of the same compound?
The value was 0%.

And the “% Control ECHCG Obs” value (28 days after preemergence application, pretilachlor 540 gr ai/ha)?
The value was 0%.
